From PubChem BioAssay (NCI)
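Five compound concentrations were applied to cells in 96-well plates for 48 hours; endpoints were derived by simple linear interpolation of the resulting dose-response curve. TGI is the concentration that stops growth completely.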

Experiments:
Test in all cases: inhibition of tumour cell growth, NCI panel, 48 h
HCT-116 colon = test system: HCT-116 colon
SF-539 CNS = test system: SF-539 CNS
SN12C renal = test system: SN12C renal
SNB-75 CNS = test system: SNB-75 CNS
K-562 leukemia = test system: K-562 leukemia
CAKI-1 renal = test system: CAKI-1 renal
SK-MEL-2 melanoma = test system: SK-MEL-2 melanoma
SF-268 CNS = test system: SF-268 CNS
HCC-2998 colon = test system: HCC-2998 colon
SK-MEL-5 melanoma = test system: SK-MEL-5 melanoma
UACC-62 melanoma = test system: UACC-62 melanoma
SK-MEL-28 melanoma = test system: SK-MEL-28 melanoma
ACHN renal = test system: ACHN renal
T-47D breast = test system: T-47D breast
EKVX NSCLC = test system: EKVX NSCLC
UO-31 renal = test system: UO-31 renal
M14 melanoma = test system: M14 melanoma
786-0 renal = test system: 786-0 renal
PC-3 prostate = test system: PC-3 prostate
A549 NSCLC = test system: A549 NSCLC
NCI-H460 lung = test system: NCI-H460 lung
DU-145 prostate = test system: DU-145 prostate
HCT-15 colon = test system: HCT-15 colon
SNB-19 CNS = test system: SNB-19 CNS
LOX IMVI melanoma = test system: LOX IMVI melanoma
HS 578T breast = test system: HS 578T breast
HOP-62 NSCLC = test system: HOP-62 NSCLC
NCI-H522 lung = test system: NCI-H522 lung
UACC-257 melanoma = test system: UACC-257 melanoma
KM12 colon = test system: KM12 colon
BT-549 breast = test system: BT-549 breast
RPMI-8226 leukemia = test system: RPMI-8226 leukemia
COLO 205 colon = test system: COLO 205 colon
NCI-H226 lung = test system: NCI-H226 lung
SW-620 colon = test system: SW-620 colon
SF-295 CNS = test system: SF-295 CNS
OVCAR-5 ovarian = test system: OVCAR-5 ovarian
MDA-MB-231 breast = test system: MDA-MB-231 breast
A498 renal = test system: A498 renal
NCI/ADR-RES ovarian = test system: NCI/ADR-RES ovarian
CCRF-CEM leukemia = test system: CCRF-CEM leukemia
MALME-3M melanoma = test system: MALME-3M melanoma
MCF7 breast = test system: MCF7 breast
IGROV1 ovarian = test system: IGROV1 ovarian
MDA-MB-435 = test system: MDA-MB-435
OVCAR-8 ovarian = test system: OVCAR-8 ovarian
SR leukemia = test system: SR leukemia
HOP-92 NSCLC = test system: HOP-92 NSCLC
HT29 colon = test system: HT29 colon
MDA-N = test system: MDA-N
MOLT-4 leukemia = test system: MOLT-4 leukemia
TK-10 renal = test system: TK-10 renal
OVCAR-3 ovarian = test system: OVCAR-3 ovarian
SK-OV-3 ovarian = test system: SK-OV-3 ovarian
OVCAR-4 ovarian = test system: OVCAR-4 ovarian
U251 CNS = test system: U251 CNS
HL-60(TB) leukemia = test system: HL-60(TB) leukemia
NCI-H23 lung = test system: NCI-H23 lung
RXF 393 renal = test system: RXF 393 renal

For O=C(O)C1C2c3ccccc3C(c3ccccc32)C1C(=O)NCC1CC1 (stereo not drawn), the TGI (HCT-116 colon) was greater than 100 µM, the TGI (SF-539 CNS) was greater than 100 µM and the TGI (SN12C renal) was greater than 100 µM. The TGI (SNB-75 CNS) was greater than 100 µM, the TGI (K-562 leukemia) was greater than 100 µM and the TGI (CAKI-1 renal) was greater than 100 µM. It also gave a TGI (SK-MEL-2 melanoma) greater than 100 µM, a TGI (SF-268 CNS) greater than 100 µM and a TGI (HCC-2998 colon) of 55.1 µM. It also gave a TGI (SK-MEL-5 melanoma) greater than 100 µM, a TGI (UACC-62 melanoma) greater than 100 µM and a TGI (SK-MEL-28 melanoma) greater than 100 µM. The TGI (ACHN renal) was greater than 100 µM, the TGI (T-47D breast) was greater than 100 µM and the TGI (EKVX NSCLC) was greater than 100 µM. It also gave a TGI (UO-31 renal) greater than 100 µM, a TGI (M14 melanoma) greater than 100 µM and a TGI (786-0 renal) greater than 100 µM. For the same compound, the TGI (PC-3 prostate) was greater than 100 µM, the TGI (A549 NSCLC) was greater than 100 µM and the TGI (NCI-H460 lung) was greater than 100 µM. For the same compound, the TGI (DU-145 prostate) was greater than 100 µM, the TGI (HCT-15 colon) was greater than 100 µM and the TGI (SNB-19 CNS) was greater than 100 µM. The TGI (LOX IMVI melanoma) was greater than 100 µM, the TGI (HS 578T breast) was greater than 100 µM and the TGI (HOP-62 NSCLC) was greater than 100 µM. The TGI (NCI-H522 lung) was 86.9 µM, the TGI (UACC-257 melanoma) was 70.5 µM and the TGI (KM12 colon) was greater than 100 µM. It also gave a TGI (BT-549 breast) greater than 100 µM, a TGI (RPMI-8226 leukemia) of 85.3 µM and a TGI (COLO 205 colon) greater than 100 µM. It also gave a TGI (NCI-H226 lung) greater than 100 µM, a TGI (SW-620 colon) greater than 100 µM and a TGI (SF-295 CNS) greater than 100 µM. The TGI (OVCAR-5 ovarian) was greater than 100 µM, the TGI (MDA-MB-231 breast) was greater than 100 µM and the TGI (A498 renal) was greater than 100 µM. For the same compound, the TGI (NCI/ADR-RES ovarian) was greater than 100 µM, the TGI (CCRF-CEM leukemia) was 96.8 µM and the TGI (MALME-3M melanoma) was greater than 100 µM. It also gave a TGI (MCF7 breast) greater than 100 µM, a TGI (IGROV1 ovarian) greater than 100 µM and a TGI (MDA-MB-435) greater than 100 µM. The TGI (OVCAR-8 ovarian) was greater than 100 µM, the TGI (SR leukemia) was greater than 100 µM and the TGI (HOP-92 NSCLC) was greater than 100 µM. The TGI (HT29 colon) was greater than 100 µM, the TGI (MDA-N) was greater than 100 µM and the TGI (MOLT-4 leukemia) was greater than 100 µM. The TGI (TK-10 renal) was greater than 100 µM, the TGI (OVCAR-3 ovarian) was greater than 100 µM and the TGI (SK-OV-3 ovarian) was greater than 100 µM. The TGI (OVCAR-4 ovarian) was greater than 100 µM, the TGI (U251 CNS) was greater than 100 µM and the TGI (HL-60(TB) leukemia) was 77.2 µM. The TGI (NCI-H23 lung) was greater than 100 µM and the TGI (RXF 393 renal) was greater than 100 µM.

Compound O=C1CSC(=S)N1/N=C/c1ccc(Cl)c([N+](=O)[O-])c1 has a TGI (HCT-116 colon) of 48.2 µM, a TGI (SF-539 CNS) greater than 100 µM and a TGI (SN12C renal) of 56.3 µM. It also gave a TGI (SNB-75 CNS) greater than 100 µM, a TGI (K-562 leukemia) greater than 100 µM and a TGI (CAKI-1 renal) greater than 100 µM. It also gave a TGI (SK-MEL-2 melanoma) of 92.7 µM, a TGI (SF-268 CNS) of 40.2 µM and a TGI (HCC-2998 colon) of 27.5 µM. The TGI (SK-MEL-5 melanoma) was greater than 100 µM, the TGI (UACC-62 melanoma) was 64.8 µM and the TGI (SK-MEL-28 melanoma) was 62.1 µM. For the same compound, the TGI (ACHN renal) was 45.6 µM, the TGI (T-47D breast) was 59.3 µM and the TGI (EKVX NSCLC) was 76.9 µM. The TGI (UO-31 renal) was 71 µM, the TGI (M14 melanoma) was 40.6 µM and the TGI (786-0 renal) was greater than 100 µM. The TGI (PC-3 prostate) was 65.6 µM, the TGI (A549 NSCLC) was greater than 100 µM and the TGI (NCI-H460 lung) was greater than 100 µM. The TGI (DU-145 prostate) was greater than 100 µM, the TGI (HCT-15 colon) was 42.1 µM and the TGI (SNB-19 CNS) was 60.8 µM. For the same compound, the TGI (LOX IMVI melanoma) was 47.7 µM, the TGI (HS 578T breast) was greater than 100 µM and the TGI (HOP-62 NSCLC) was 86.3 µM. For the same compound, the TGI (NCI-H522 lung) was 36.8 µM, the TGI (UACC-257 melanoma) was 62.8 µM and the TGI (KM12 colon) was greater than 100 µM. It also gave a TGI (BT-549 breast) of 37.9 µM, a TGI (RPMI-8226 leukemia) greater than 100 µM and a TGI (COLO 205 colon) greater than 100 µM. For the same compound, the TGI (NCI-H226 lung) was greater than 100 µM, the TGI (SW-620 colon) was greater than 100 µM and the TGI (SF-295 CNS) was 68.5 µM. The TGI (OVCAR-5 ovarian) was greater than 100 µM, the TGI (MDA-MB-231 breast) was 48 µM and the TGI (A498 renal) was greater than 100 µM. It also gave a TGI (NCI/ADR-RES ovarian) of 52.5 µM, a TGI (CCRF-CEM leukemia) greater than 100 µM and a TGI (MALME-3M melanoma) of 40.4 µM. The TGI (MCF7 breast) was 32.7 µM, the TGI (IGROV1 ovarian) was greater than 100 µM and the TGI (MDA-MB-435) was 54.3 µM. It also gave a TGI (OVCAR-8 ovarian) of 92.2 µM, a TGI (SR leukemia) greater than 100 µM and a TGI (HOP-92 NSCLC) of 67.7 µM. The TGI (HT29 colon) was greater than 100 µM, the TGI (MDA-N) was 52.6 µM and the TGI (MOLT-4 leukemia) was greater than 100 µM. The TGI (TK-10 renal) was greater than 100 µM, the TGI (OVCAR-3 ovarian) was 42.5 µM and the TGI (SK-OV-3 ovarian) was greater than 100 µM. It also gave a TGI (OVCAR-4 ovarian) of 50.7 µM, a TGI (U251 CNS) of 35.3 µM and a TGI (HL-60(TB) leukemia) of 61 µM. The TGI (NCI-H23 lung) was 31.9 µM and the TGI (RXF 393 renal) was greater than 100 µM.
